Laboratory results published in patent publication US9617225B2 (VIROSTATICS SRL, priority 2012, dated 2017).
Read-outs that look alike come from different tables or passages of the source.

Experiments:
[1] = system: Primary T cells; assay: Cytotoxicity, viability by flow cytometry; format: cell-based
Procedure: Primary T cells are cultured and treated with different concentrations of the test compound. Viability is analysed by measuring through flow cytometry based techniques the percentage of viable cells, compared to untreated control=100%).

[2] = biological target: human CDK9/CyclinT kinase complex (Homo sapiens (Human), UniProt P50750); assay: In Vitro CDK9/CyclinT Assay (IMAP fluorescent polarization); format: biochemical
How it was run: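 Phosphorylation of 400 nM TAMRA-Rbtide (15-mer retinoblastoma-derived peptide) by 5 nM CDK9/CyclinT with 12 μM ATP (=Kmapp) in 20 mM MOPS pH 7, 1 mM DTT, 10 mM MgCl2, 0.01% Tween 20. Reaction run 1 hour at room temperature, stopped with IMAP beads; read by fluorescence polarization.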

[3] = system: laboratory strain of HIV-1; assay: Antiviral Activity Against HIV (AV), p24 in infected activated primary T cells; format: cell-based; conditions: for antiviral and antiproliferative activity and cytotoxicity profile / anti-HIV and cytotoxicity profile: summary in words
Procedure: Antiviral Activity Against HIV (AV)
Activated primary T cells are infected with a laboratory strain of HIV-1, then cultured and exposed to different concentrations of the test compounds. HIV replication is analysed by measuring the viral protein p24 and expressed as percentage of untreated control. Inhibition of viral replication (AV) is then calculated (AV=100 minus the % p24 compared to control, AV of control=0%). Inhibitory concentration 50% for antiviral activity (AV50) is calculated.

[4] = Table 4, toxic dose 50%, viable cells

Chain of human CDK9/CyclinT kinase complex (P50750 whole entry): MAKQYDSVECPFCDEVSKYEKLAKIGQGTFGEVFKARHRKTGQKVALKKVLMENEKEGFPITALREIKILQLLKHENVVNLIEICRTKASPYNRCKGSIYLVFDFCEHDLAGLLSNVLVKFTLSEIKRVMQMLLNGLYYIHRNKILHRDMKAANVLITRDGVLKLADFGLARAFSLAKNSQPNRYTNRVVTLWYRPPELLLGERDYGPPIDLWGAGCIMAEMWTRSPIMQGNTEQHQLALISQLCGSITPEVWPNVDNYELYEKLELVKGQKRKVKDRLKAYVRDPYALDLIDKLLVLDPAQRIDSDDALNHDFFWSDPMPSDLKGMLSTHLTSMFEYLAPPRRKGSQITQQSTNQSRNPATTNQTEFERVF
Chain of human CDK9/CyclinT kinase complex (O60563 whole entry partner): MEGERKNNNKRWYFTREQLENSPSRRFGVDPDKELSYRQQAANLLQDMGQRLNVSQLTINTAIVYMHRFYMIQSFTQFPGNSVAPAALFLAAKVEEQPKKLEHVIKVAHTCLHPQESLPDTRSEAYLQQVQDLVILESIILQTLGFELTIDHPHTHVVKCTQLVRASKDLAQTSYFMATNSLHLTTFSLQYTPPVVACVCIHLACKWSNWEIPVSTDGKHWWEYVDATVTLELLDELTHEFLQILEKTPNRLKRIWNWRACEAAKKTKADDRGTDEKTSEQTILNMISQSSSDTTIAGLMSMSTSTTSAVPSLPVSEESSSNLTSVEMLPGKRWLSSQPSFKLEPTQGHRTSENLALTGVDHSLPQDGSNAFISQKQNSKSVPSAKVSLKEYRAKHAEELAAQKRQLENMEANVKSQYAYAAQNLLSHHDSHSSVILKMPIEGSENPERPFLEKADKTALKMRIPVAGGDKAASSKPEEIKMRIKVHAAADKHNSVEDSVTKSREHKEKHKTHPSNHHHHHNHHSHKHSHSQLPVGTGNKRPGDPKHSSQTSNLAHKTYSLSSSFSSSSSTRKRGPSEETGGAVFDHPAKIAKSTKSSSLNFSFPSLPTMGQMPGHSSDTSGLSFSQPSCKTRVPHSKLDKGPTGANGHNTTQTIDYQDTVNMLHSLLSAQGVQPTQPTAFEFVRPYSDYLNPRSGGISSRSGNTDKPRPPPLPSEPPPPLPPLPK

| SMILES | TD50 [1] [µM] | IC50 ([2]; Table 1) [nM] | antiviral and antiproliferative activity and cytotoxicity profile [3] | further results |
| --- | --- | --- | --- | --- |
| COc1cc(F)c(Nc2cc(-c3ccc(F)cc3OC)ncn2)cc1C(N)=O [Example 146, 4-Fluoro-5-[6-(4-fluoro-2-methoxy-phenyl)-pyrimidin-4-ylamino]-2-methoxy-benzamide] | 10 | < 1000 | good antiviral and antiproliferative activity and a good cytotoxicity profile | – |
| COc1ccc(Nc2cc(-c3cc(F)ccc3OC)ncn2)cc1N [Example 75, N^1-[6-(5-Fluoro-2-methoxy-phenyl)-pyrimidin-4-yl]-4-methoxy-benzene-1,3-diamine] | 10 | < 1000 | good antiviral and antiproliferative activity and a good cytotoxicity profile | – |
| CCOc1ccc(Nc2cc(-c3ccccc3OC)ncn2)cc1C(N)=O [Example 111, 2-Ethoxy-5-[6-(2-methoxy-phenyl)-pyrimidin-4-ylamino]-benzamide] | 12 | < 1000 | good antiviral and antiproliferative activity and a good cytotoxicity profile | – |
| CCOc1ccc(F)cc1-c1cc(Nc2cc(F)c(OC)c(C(N)=O)c2)ncn1 [Example 142, 5-[6-(2-Ethoxy-5-fluoro-phenyl)-pyrimidin-4-ylamino]-3-fluoro-2-methoxy-benzamide] | >20 | – | good antiviral and antiproliferative activity and a good cytotoxicity profile | IC50 [2]: < 1000 nM |
| CCOc1ccc(Nc2cc(-c3ccc(F)cc3OC)ncn2)cc1C(N)=O [Example 112, 2-Ethoxy-5-[6-(4-fluoro-2-methoxy-phenyl)-pyrimidin-4-ylamino]-benzamide] | 10 | – | good antiviral and antiproliferative activity and a good cytotoxicity profile | IC50 [2]: < 1000 nM |
| COc1ccc(Nc2cc(-c3ccccc3OC)ncn2)cc1N [Example 41, 4-Methoxy-N1-(6-(2-methoxyphenyl)pyrimidin-4-yl)benzene-1,3-diamine] | 8.5 | – | good antiviral and antiproliferative activity and a good cytotoxicity profile | IC50 [2]: < 1000 nM |
| COc1ccccc1-c1cc(Nc2ccc(OC)c([N+](=O)[O-])c2)ncn1 [Example 11, N-(4-Methoxy-3-nitrophenyl)-6-(2-methoxyphenyl)pyrimidin-4-amine] | >1.5 | < 1000 | – | IC50 ([2]; Table 5): < 1000 nM; IC50 ([3]; read-out: AV50, Table 5): > 1500 nM |
| COc1ccc(Nc2cc(-c3ccccc3OC)ncn2)cc1NS(=O)(=O)NC1CCCCC1 [Example 13, (2-Methoxy-5-(6-(2-methoxyphenyl)pyrimidin-4-ylamino)phenyl) (cyclohexylsulfamoyl)amine] | 5 | < 1000 | good antiviral and antiproliferative activity and a good cytotoxicity profile | – |
| COc1ccc(Nc2cc(-c3cc(F)c(F)cc3OC)ncn2)cc1N [Example 83, N^1-[6-(4,5-Difluoro-2-methoxy-phenyl)-pyrimidin-4-yl]-4-methoxy-benzene-1,3-diamine] | 12 | < 1000 | good antiviral and antiproliferative activity and a good cytotoxicity profile | – |
| CC[C@H](CO)Nc1nc(NCc2ccccc2)c2ncn(C(C)C)c2n1 [Roscovitine, reference compound] | – | – | – | TD50 [1, 4]: 8 µM; anti-HIV and cytotoxicity profile [3]: poor |
| CN1CC[C@H](c2c(O)cc(O)c3c(=O)cc(-c4ccccc4Cl)oc23)[C@H](O)C1 [Flavopiridol, reference compound] | 0.1 | – | – | anti-HIV and cytotoxicity profile [3]: poor |
| CCOc1ccc(Nc2cc(-c3ccccc3OC)ncn2)cc1Cn1cnc2ccccc21 [Example 39, N-(3-((1H-Benzo[d]imidazol-1-yl)methyl)-4-ethoxyphenyl)-6-(2-methoxyphenyl)pyrimidin-4-amine] | 0.6 | < 100 | – | – |
| COc1ccc(Nc2cc(-c3ccccc3OC)ncn2)cc1C=O [Example 29, 2-Methoxy-5-(6-(2-methoxyphenyl)pyrimidin-4-ylamino)benzaldehyde] | >0.5 | < 1000 | – | – |
| COc1ccccc1-c1cc(Nc2ccc(Cl)c(C(N)=O)c2)ncn1 [Example 44, 2-Chloro-5-(6-(2-methoxyphenyl)pyrimidin-4-ylamino)benzamide] | >5 | – | – | IC50 [2]: < 1000 nM |
| COc1ccc(Nc2cc(-c3ccccc3OC)ncn2)cc1OCc1ccccc1 [Example 36, N-(3-(Benzyloxy)-4-methoxyphenyl)-6-(2-methoxyphenyl)pyrimidin-4-amine] | – | – | – | TD50 [1, 4]: >5 µM; IC50 [2]: < 10000 nM |
| COc1ccccc1-c1cc(Nc2cc(F)c(OC)c(C(N)=O)c2)ncn1 [Example 137, 3-Fluoro-2-methoxy-5-[6-(2-methoxy-phenyl)-pyrimidin-4-ylamino]-benzamide] | >2 | < 10000 | – | – |
| COc1ccccc1-c1cc(Nc2ccc(Cl)c(CO)c2)ncn1 [Example 6, (2-Chloro-5-(6-(2-methoxyphenyl)pyrimidin-4-ylamino)phenyl)methanol] | >0.5 | < 1000 | – | – |
| COc1ccc(Nc2cc(-c3ccc(F)cc3OC)ncn2)cc1OC(C)=O [Example 126, Acetic acid 5-[6-(4-fluoro-2-methoxy-phenyl)-pyrimidin-4-ylamino]-2-methoxy-phenyl ester] | – | – | – | TD50 [1, 4]: >2 µM; IC50 [2]: < 1000 nM |
| COc1ccccc1-c1cc(Nc2ccc(N3CCN(C)CC3)c(S(N)(=O)=O)c2)ncn1 [Example 38, 5-(6-(2-Methoxyphenyl)pyrimidin-4-ylamino)-2-(4-methylpiperazin-1-yl)benzenesulfonamide] | <1.5 | < 100 | – | – |
| COc1ccc(Nc2cc(-c3ccccc3Oc3ccccc3)ncn2)cc1N [Example 77, 4-Methoxy-N^1-[6-(2-phenoxy-phenyl)-pyrimidin-4-yl]-benzene-1,3-diamine] | 10 | < 10000 | – | – |
| COc1ccc(Nc2cc(-c3cccc(F)c3OC)ncn2)cc1N [Example 81, N^1-[6-(3-Fluoro-2-methoxy-phenyl)-pyrimidin-4-yl]-4-methoxy-benzene-1,3-diamine] | 3 | – | – | IC50 [2]: < 10000 nM |
| COc1ccc(Nc2cc(-c3ccccc3OC)ncn2)cc1CNS(C)(=O)=O [Example 4, N-(2-Methoxy-5-(6-(2-methoxyphenyl)pyrimidin-4-ylamino)benzyl)methanesulfonamide] | 2.1 | < 100 | – | – |
| COc1ccc(Nc2cc(-c3ccccc3OC)ncn2)cc1CO [Example 24, (2-Methoxy-5-(6-(2-methoxyphenyl)pyrimidin-4-ylamino)phenyl)methanol] | >0.5 | < 1000 | – | – |
| COc1ccc(Nc2cc(-c3ccccc3OC)ncn2)cc1F [Example 22, N-(3-Fluoro-4-methoxyphenyl)-6-(2-methoxyphenyl)pyrimidin-4-amine] | >0.5 | < 1000 | – | – |
| COC(=O)Nc1cc(Nc2cc(-c3ccc(F)cc3OC)ncn2)ccc1OC [Example 118, {5-[6-(4-Fluoro-2-methoxy-phenyl)-pyrimidin-4-ylamino]-2-methoxy-phenyl}-carbamic acid methyl ester] | – | < 1000 | – | TD50 [1, 4]: >2 µM; TD50 ([1]; Table 5): >2 µM; IC50 ([2]; Table 5): < 1000 nM |
